# Reference: US20240368121A1, “ESTROGEN RECEPTOR DEGRADERS, PHARMACEUTICAL COMPOSITIONS THEREOF, AND THEIR THERAPEUTIC APPLICATIONS” (BioTheryX, Inc., priority 2021, published 2024)
# Experiments:
# Format in all cases: cell-based
# MCF7 cells = assay: Cell viability assay ([…]-GLO, 6-day treatment); conditions: Homo sapiens, MCF7, 144 h; MCF-7 cells, 6 days, CTG; read-out: Inhibition of Cancerous Cells IC50 MCF-7
# Procedure, shortened: (§1)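 MCF7 (MEM) and T47D (RPMI with insulin), both with 10% FBS, at 1,000 cells/well, treated with a 10-point compound dose series for 6 days, with medium and compound refreshed once. Viability read by CellTiter-Glo luminescence.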
# T47D cells = assay: Cell viability assay ([…]-GLO, 6-day treatment); conditions: Homo sapiens, 144 h, 6 days, CTG, read-out: Inhibition of Cancerous Cells IC50 T47D
# Procedure, shortened: as §1
# ERα = target: T1, ERα (Homo sapiens, UniProt P03372); assay: Protein degradation assay: ERα in MCF-7 cells via western blot; conditions: 6 h; for ERα Protein Degradation 1 nM: 1 nM compound; for ERα Protein Degradation 10 nM: 10 nM compound; for ERα Protein Degradation 100 nM: 100 nM compound
# T1 construct: degrading an ERα in MCF-7 cells via a western blot; endogenous in cells; host or cells: MCF-7
# T1 sequence (P03372 1-595): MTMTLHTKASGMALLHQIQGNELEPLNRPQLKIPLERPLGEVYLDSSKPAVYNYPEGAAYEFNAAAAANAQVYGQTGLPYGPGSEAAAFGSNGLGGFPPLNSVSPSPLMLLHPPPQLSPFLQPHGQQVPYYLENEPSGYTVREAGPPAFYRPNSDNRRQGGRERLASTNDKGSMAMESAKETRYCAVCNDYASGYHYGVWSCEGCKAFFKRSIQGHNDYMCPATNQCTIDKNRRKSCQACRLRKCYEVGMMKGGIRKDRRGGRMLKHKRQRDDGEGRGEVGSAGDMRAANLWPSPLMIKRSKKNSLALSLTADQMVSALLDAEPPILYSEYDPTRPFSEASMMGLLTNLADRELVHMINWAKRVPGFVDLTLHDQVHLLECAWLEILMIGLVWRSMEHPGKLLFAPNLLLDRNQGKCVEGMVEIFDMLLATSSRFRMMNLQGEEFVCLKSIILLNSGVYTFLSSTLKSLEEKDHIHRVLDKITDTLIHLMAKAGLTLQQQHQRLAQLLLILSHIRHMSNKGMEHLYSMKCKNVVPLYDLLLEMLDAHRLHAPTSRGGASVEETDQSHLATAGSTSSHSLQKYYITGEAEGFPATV
# Procedure, shortened: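 MCF-7 cells in MEM/10% FBS with insulin, seeded 300,000/well, treated 6 h at set concentrations (e.g., 1 nM–1 μM). Whole-cell lysates immunoblotted for ERα with GAPDH loading control, chemiluminescent detection; percentage degradation reported in binned categories (≥50%, 25–50%, 10–25%, <10%).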
Compound,IC50 (MCF7 cells) [nM],IC50 (T47D cells) [nM],ERα Protein Degradation 1 nM (ERα),ERα Protein Degradation 10 nM (ERα),ERα Protein Degradation 100 nM (ERα)
"O=C1CCC(c2ccc(OCC(=O)N3CCN(CCCCOc4ccc([C@@H]5c6ccc(O)cc6CC[C@@H]5c5ccccc5)cc4)CC3)cc2)C(=O)N1 (stereo partly drawn) [Compound B6, 3-(4-(2-(4-(4-(4-((1R,2S)-6-hydroxy-2-phenyl-1,2,3,4-tetrahydronaphthalen-1-yl)phenoxy)butyl)piperazin-1-yl)-2-oxoethoxy)phenyl)piperidine-2,6-dione]",0.22,0.18,C (a percentage degradation value of less than 25% and no less than 10%),C (a percentage degradation value of less than 25% and no less than 10%),C (a percentage degradation value of less than 25% and no less than 10%)
"O=C1CCC(N2Cc3cc(N4CCN(CC5CCN(c6ccc(C7c8ccc(O)cc8CC[C@@H]7c7ccccc7)cc6)CC5)CC4)ccc3C2=O)C(=O)N1 (stereo in doubt) [Compound A16, (S)-3-(5-(4-((1-(4-((1R,2S)-6-Hydroxy-2-phenyl-1,2,3,4-tetrahydronaphthalen-1-yl)phenyl)piperidin-4-yl)methyl)piperazin-1-yl)-1-oxoisoindolin-2-yl)piperidine-2,6-dione]",0.68,0.22,B (a percentage degradation value of less than 50% and no less than 25%),A (a percentage degradation value of no less than 50%),A (a percentage degradation value of no less than 50%)
"O=C1CCC(Nc2cccc(OCC(=O)N3CCN(CC4CCN(c5ccc([C@@H]6c7ccc(O)cc7CC[C@@H]6c6ccccc6)cc5)CC4)CC3)c2)C(=O)N1 (stereo partly drawn) [Compound B16, 3-((3-(2-(4-((1-(4-((1R,2S)-6-hydroxy-2-phenyl-1,2,3,4-tetrahydronaphthalen-1-yl)phenyl)piperidin-4-yl)methyl)piperazin-1-yl)-2-oxoethoxy)phenyl)amino)piperidine-2,6-dione]",5,2.6,C (a percentage degradation value of less than 25% and no less than 10%),C (a percentage degradation value of less than 25% and no less than 10%),C (a percentage degradation value of less than 25% and no less than 10%)
"O=C1CCC(Nc2cccc(N3CCN(CC4CCN(c5ccc([C@@H]6c7ccc(O)cc7CC[C@@H]6c6ccccc6)cc5)CC4)CC3)c2)C(=O)N1 (stereo partly drawn) [Compound B13, 3-((3-(4-((1-(4-((1R,2S)-6-hydroxy-2-phenyl-1,2,3,4-tetrahydronaphthalen-1-yl)phenyl)piperidin-4-yl)methyl)piperazin-1-yl)phenyl)amino)piperidine-2,6-dione]",16,4.6,D (a percentage degradation value of less than 10%),D (a percentage degradation value of less than 10%),D (a percentage degradation value of less than 10%)
"O=C1CCC(N2Cc3c(cc(F)cc3C3CCN(CCCCOc4ccc([C@@H]5c6ccc(O)cc6CC[C@@H]5c5ccccc5)cc4)CC3)C2=O)C(=O)N1 (stereo partly drawn) [Compound A1, 3-(6-fluoro-4-(1-(4-(4-((1R,2S)-6-hydroxy-2-phenyl-1,2,3,4-tetrahydro-naphthalen-1-yl)phenoxy)butyl)piperidin-4-yl)-1-oxoisoindolin-2-yl)piperidine-2,6-dione]",< 0.01,0.24,C (a percentage degradation value of less than 25% and no less than 10%),C (a percentage degradation value of less than 25% and no less than 10%),B (a percentage degradation value of less than 50% and no less than 25%)
"O=C1CCN(c2ccc(OCC(=O)N3CCN(CCCCOc4ccc([C@@H]5c6ccc(O)cc6CC[C@@H]5c5ccccc5)cc4)CC3)cc2)C(=O)N1 [Compound B10, 1-(4-(2-(4-(4-(4-((1R,2S)-6-hydroxy-2-phenyl-1,2,3,4-tetrahydronaphthalen-1-yl)phenoxy)butyl)piperazin-1-yl)-2-oxoethoxy)phenyl)dihydropyrimidine-2,4(1H,3H)-dione]",1.6,0.76,D (a percentage degradation value of less than 10%),D (a percentage degradation value of less than 10%),D (a percentage degradation value of less than 10%)

# Now from value to molecule, other results behind:
IC50 (MCF7 cells) [nM],IC50 (T47D cells) [nM],Compound,ERα Protein Degradation 1 nM (ERα),ERα Protein Degradation 10 nM (ERα),ERα Protein Degradation 100 nM (ERα)
1.8,1.3,"Cc1c(-c2ccc(O)cc2)n(Cc2ccc(OCCCCN3CCN(C(=O)COc4ccc5c(N6CCC(=O)NC6=O)nn(C)c5c4)CC3)cc2)c2ccc(O)cc12 [Compound E16, 1-(6-(2-(4-(4-(4-((5-Hydroxy-2-(4-hydroxyphenyl)-3-methyl-1H-indol-1-yl)-methyl)phenoxy)butyl)piperazin-1-yl)-2-oxoethoxy)-1-methyl-1H-indazol-3-yl)dihydro-pyrimidine-2,4(1H,3H)-dione]",C (a percentage degradation value of less than 25% and no less than 10%),C (a percentage degradation value of less than 25% and no less than 10%),D (a percentage degradation value of less than 10%)
19,0.84,"Cc1c(-c2ccc(O)cc2)n(Cc2ccc(OCCCCN3CCN(C(=O)COc4cccc5c4CN(C4CCC(=O)NC4=O)C5=O)CC3)cc2)c2ccc(O)cc12 (stereo not drawn) [Compound E1, 3-(4-(2-(4-(4-(4-((5-hydroxy-2-(4-hydroxyphenyl)-3-methyl-1H-indol-1-yl)-methyl)phenoxy)butyl)piperazin-1-yl)-2-oxoethoxy)-1-oxoisoindolin-2-yl)piperidine-2,6-dione]",C (a percentage degradation value of less than 25% and no less than 10%),B (a percentage degradation value of less than 50% and no less than 25%),B (a percentage degradation value of less than 50% and no less than 25%)
0.38,0.17,"Cc1c(-c2ccc(O)cc2)n(Cc2ccc(N3CCC(CN4CCN(c5ccc6c(c5)CN(C5CCC(=O)NC5=O)C6=O)CC4)CC3)cc2)c2ccc(O)cc12 (stereo not drawn) [Compound E4, 3-(5-(4-((1-(4-((5-hydroxy-2-(4-hydroxyphenyl)-3-methyl-1H-indol-1-yl)-methyl)phenyl)piperidin-4-yl)methyl)piperazin-1-yl)-1-oxoisoindolin-2-yl)piperidine-2,6-dione]",B (a percentage degradation value of less than 50% and no less than 25%),B (a percentage degradation value of less than 50% and no less than 25%),C (a percentage degradation value of less than 25% and no less than 10%)
